According to US11541132B2, “Radiolabeled compounds” (Hoffmann-La Roche Inc., priority 2017, dated 2023):

Key:
[1] = molecular target: T1, native aSyn aggregates in A30P transgenic mouse brain sections (Homo sapiens, UniProt P37840, A30P); experiment: aSyn in vitro displacement assay ([3H]Example-3 autoradiography); format: binding, mutant human aSyn gene); conditions: 1 μM compound; 3 nM [3H]Example-3; A30P transgenic mouse brain sections; read-out: PCT_INHIB A30P @ 1 μM (% displacement of [3H]Example-3)
T1 construct: from tissue; host or cells: brain sections (midbrain and pons as ROI) of A30P transgenic mice, line B6.D2-Tg(Thy1-SNCA*30P)31Pjk

[2] = molecular target: T2, native Aβ aggregates in human AD brain tissue sections (Homo sapiens, UniProt P05067); experiment: Aβ in vitro displacement assay (selectivity counterscreen, [3H]Example 3 autoradiography); format: binding; conditions: 1 μM compound; 3 nM [3H]Example 3; human AD brain sections; read-out: sel. counterscreen PCT_INHIB AD @ 1 μM (% displacement of [3H]Example 3)
T2 construct: native Aβ aggregates in human AD brain tissue samples; from tissue; host or cells: human AD brain tissue sections
T2 sequence (P05067 672-713 limits assumed): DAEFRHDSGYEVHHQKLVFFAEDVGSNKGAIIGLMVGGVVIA

| Structure (SMILES) | inhibition at 1 µM [1] [%] | inhibition at 1 µM [2] [%] |
| --- | --- | --- |
| O=C(Nc1ccc(N2CCN(c3ccccn3)CC2)cc1)c1ccc(OCF)cc1 [Example 135, 4-(fluoromethoxy)-N-[4-(4-pyridin-2-ylpiperazin-1-yl)phenyl]benzamide] | 97 | 98 |
| N#Cc1ccc(N2CCN(c3ccc(NC(=O)c4ccc(OCF)cc4)cc3)CC2)nc1 [Example 136, N-(4-(4-(5-cyanopyridin-2-yl)piperazin-1-yl)phenyl)-4-(fluoromethoxy) benzamide] | 91 | 92 |
| O=C(Nc1ccc(N2CCN(c3ccccn3)CC2)cc1)c1ccc(OCCOCCO)cc1 [Example 137, 4-(2-(2-Hydroxyethoxy)ethoxy)-N-(4-(4-(pyridin-2-yl)piperazin-1-yl)phenyl)benzamide] | 80 | 92 |
| O=C(Nc1ccc(N2CCN(c3cccnc3)CC2)cc1)c1ccc(O)cc1 [Example 138, 4-Hydroxy-N-[4-(4-pyridin-3-ylpiperazin-1-yl)phenyl]benzamide] | 82 | 89 |
| COc1ccc(C(=O)Nc2ccc(N3CCN(c4ccc(C#N)cc4OC)CC3)cc2)cc1 [Example 139, N-(4-(4-(4-Cyano-2-methoxyphenyl)piperazin-1-yl)phenyl)-4-methoxybenzamide] | 94 | 94 |
| COc1ccc(C(=O)Nc2ccc(N3CCN(c4ccc(C#N)c(OC)c4)CC3)cc2)cc1 [Example 140, N-(4-(4-(4-Cyano-3-methoxyphenyl)piperazin-1-yl)phenyl)-4-methoxybenzamide] | 94 | 93 |
| COc1ccc(C(=O)Nc2ccc(N3CCN(c4ccc(F)cn4)CC3)cc2)cc1 [Example 141, N-(4-(4-(5-Fluoropyridin-2-yl)piperazin-1-yl)phenyl)-4-methoxybenzamide] | 96 | 94 |
| COc1ccc(C(=O)Nc2ccc(N3CCN(c4ccc(N(C)C)cn4)CC3)cc2)cc1 [Example 142, N-(4-(4-(5-(Dimethylamino)pyridin-2-yl)piperazin-1-yl)phenyl)-4-methoxybenzamide] | 91 | 91 |
| COc1ccc(C(=O)Nc2ccc(N3CCN(c4ncc(C#N)cn4)CC3)cc2)cc1 [Example 143, N-(4-(4-(5-Cyanopyrimidin-2-yl)piperazin-1-yl)phenyl)-4-methoxybenzamide] | 91 | 91 |
| COc1ccc(C(=O)Nc2ccc(N3CCN(c4ccc(C#N)cc4C)CC3)cc2)cc1 [Example 144, N-(4-(4-(4-Cyano-2-methylphenyl)piperazin-1-yl)phenyl)-4-methoxybenzamide] | 89 | 92 |
| COc1ccc(C(=O)Nc2ccc(N3CCN(c4ccc(C#N)cc4F)CC3)cc2)cc1 [Example 145, N-(4-(4-(4-Cyano-2-fluorophenyl)piperazin-1-yl)phenyl)-4-methoxybenzamide] | 98 | 97 |
| COc1ccc(C(=O)Nc2ccc(N3CCN(c4cccc(F)n4)CC3)cc2)cc1 [Example 146, N-(4-(4-(6-Fluoropyridin-2-yl)piperazin-1-yl)phenyl)-4-methoxybenzamide] | 95 | 91 |
| COc1ccc(C(=O)Nc2ccc(N3CCN(c4cnc(C#N)cn4)CC3)cc2)cc1 [Example 147, N-(4-(4-(5-Cyanopyrazin-2-yl)piperazin-1-yl)phenyl)-4-methoxybenzamide] | 88 | 91 |
| COc1ccc(C(=O)Nc2ccc(N3CCN(c4ncccc4F)CC3)cc2)cc1 [Example 148, N-(4-(4-(3-Fluoropyridin-2-yl)piperazin-1-yl)phenyl)-4-methoxybenzamide] | 86 | 89 |
| COc1ccc(C(=O)Nc2ccc(N3CCN(c4cc(Cl)ccn4)CC3)cc2)cc1 [Example 149, N-(4-(4-(4-Chloropyridin-2-yl)piperazin-1-yl)phenyl)-4-methoxybenzamide] | 93 | 91 |
| COc1ccc(C(=O)Nc2ccc(N3CCN(c4ccc(C#N)c(F)c4)CC3)cc2)cc1 [Example 150, N-(4-(4-(4-Cyano-3-fluorophenyl)piperazin-1-yl)phenyl)-4-methoxybenzamide] | 98 | 94 |
| COc1ccc(C(=O)Nc2ccc(N3CCN(c4cc(C)c(C#N)cn4)CC3)cc2)cc1 [Example 151, N-(4-(4-(5-Cyano-4-methylpyridin-2-yl)piperazin-1-yl)phenyl)-4-methoxybenzamide] | 93 | 91 |
| COc1ccc(C(=O)Nc2ccc(N3CCN(c4cc(Cl)c(C#N)cn4)CC3)cc2)cc1 [Example 152, N-(4-(4-(4-Chloro-5-cyanopyridin-2-yl)piperazin-1-yl)phenyl)-4-methoxybenzamide] | 90 | 88 |

| Structure (SMILES) | inhibition at 1 µM [1] [%] | inhibition at 1 µM [2] [%] |
| --- | --- | --- |
| COc1ccc(C(=O)Nc2ccc(N3CCN(c4ccc(C#N)c(C)c4)CC3)cc2)cc1 [Example 153, N-(4-(4-(4-Cyano-3-methylphenyl)piperazin-1-yl)phenyl)-4-methoxybenzamide] | 92 | 87 |
| COc1ccc(C(=O)Nc2ccc(N3CCN(c4ccc(C#N)nc4)CC3)cc2)cc1 [Example 154, N-(4-(4-(6-Cyanopyridin-3-yl)piperazin-1-yl)phenyl)-4-methoxybenzamide] | 98 | 96 |
| COc1ccc(C(=O)Nc2ccc(N3CCN(c4ccnc(OC)c4)CC3)cc2)cc1 [Example 155, 4-Methoxy-N-(4-(4-(2-methoxypyridin-4-yl)piperazin-1-yl)phenyl)benzamide] | 85 | 97 |
| COc1ccc(C(=O)Nc2ccc(N3CCN(c4ccc(C)nc4)CC3)cc2)cc1 [Example 156, 4-Methoxy-N-(4-(4-(6-methylpyridin-3-yl)piperazin-1-yl)phenyl)benzamide] | 81 | 76 |
| COc1ccc(C(=O)Nc2ccc(N3CCN(c4ccc(C#N)cc4)CC3)cc2)cn1 [Example 157, N-(4-(4-(4-Cyanophenyl)piperazin-1-yl)phenyl)-6-methoxynicotinamide] | 91 | 92 |
| Cn1cc(C(=O)Nc2ccc(N3CCN(c4ccc(C#N)cc4)CC3)cc2)cn1 [Example 158, N-(4-(4-(4-Cyanophenyl)piperazin-1-yl)phenyl)-1-methyl-1H-pyrazole-4-carboxamide] | 83 | 87 |
| COc1ccc(C(=O)Nc2ccc(N3CCN(c4ccc(C#N)cn4)CC3)cc2)cc1OC [Example 159, N-(4-(4-(5-Cyanopyridin-2-yl)piperazin-1-yl)phenyl)-3,4-dimethoxybenzamide] | 88 | 89 |
| COc1ccc(C(=O)Nc2ccc(N3CCN(c4ccc(C#N)cn4)CC3)cc2)cc1F [Example 160, N-(4-(4-(5-Cyanopyridin-2-yl)piperazin-1-yl)phenyl)-3-fluoro-4-methoxybenzamide] | 96 | 95 |
| N#Cc1ccc(N2CCN(c3ccc(NC(=O)c4ccncc4)cc3)CC2)nc1 [Example 161, N-(4-(4-(5-Cyanopyridin-2-yl)piperazin-1-yl)phenyl)isonicotinamide] | 84 | 87 |
| COc1ccc(C(=O)Nc2ccc(N3CCN(c4ccc(C#N)cn4)CC3)cc2)nc1 [Example 162, N-(4-(4-(5-Cyanopyridin-2-yl)piperazin-1-yl)phenyl)-5-methoxypicolinamide] | 84 | 78 |
| COc1ccc(C(=O)Nc2ccc(N3CCN(c4ccc(C#N)cc4)CC3)cc2)cc1F [Example 163, N-(4-(4-(4-Cyanophenyl)piperazin-1-yl)phenyl)-3-fluoro-4-methoxybenzamide] | 94 | 92 |
| N#Cc1ccc(C(=O)Nc2ccc(N3CCN(c4ccc(C#N)cn4)CC3)cc2)cc1 [Example 164, 4-Cyano-N-(4-(4-(5-cyanopyridin-2-yl)piperazin-1-yl)phenyl)benzamide] | 80 | 90 |
| N#Cc1ccc(N2CCN(c3ccc(NC(=O)c4ccncn4)cc3)CC2)cc1 [Example 165, N-(4-(4-(4-Cyanophenyl)piperazin-1-yl)phenyl)pyrimidine-4-carboxamide] | 86 | 90 |
| COc1ccc(C(=O)Nc2ccc(N3CCN(c4ccc(C#N)cc4)CC3)cc2)nc1 [Example 166, N-(4-(4-(4-Cyanophenyl)piperazin-1-yl)phenyl)-5-methoxypicolinamide] | 81 | 70 |
| COc1ccc(C(=O)Nc2ccc(N3CCN(c4ccc(C#N)cc4)CC3)cc2)cc1C [Example 167, N-(4-(4-(4-Cyanophenyl)piperazin-1-yl)phenyl)-4-methoxy-3-methylbenzamide] | 91 | 88 |
| COc1ccc(C(=O)Nc2ccc(N3CCN(c4ccc(C#N)cc4)CC3)cc2)c(C)c1 [Example 168, N-(4-(4-(4-Cyanophenyl)piperazin-1-yl)phenyl)-4-methoxy-2-methylbenzamide] | 95 | 96 |
| COc1ccc(C(=O)Nc2ccc(N3CCN(c4ccc(C#N)cc4)CC3)cc2)cc1OC [Example 169, N-(4-(4-(4-Cyanophenyl)piperazin-1-yl)phenyl)-3,4-dimethoxybenzamide] | 83 | 82 |
